From ChEMBL document CHEMBL2434881, “Design and evaluation of novel 8-oxo-pyridopyrimidine Jak1/2 inhibitors” (Bioorg Med Chem Lett, 2013)
Converted amounts (≈) assume the structure as drawn.

How the values were obtained:
[1] = Apparent permeability of the compound from apical to basolateral side of MDCK cells; type: ADME, cell-based, Canis lupus familiaris; conditions: dog
[2] = Aqueous kinetic solubility of the compound in PBS buffer at pH 7.4; type: physicochemical; conditions: read-out: Kinetic_solubility

**Q.** What does the source list for `CCc1nc(N[C@@H]2CCC[C@@H]2C#N)c2cc[nH]c(=O)c2n1` (racemic)?
**A.** Papp A→B [1]: 0.6 ×10⁻⁶ cm/s; solubility kinetic [2]: 140 µM (≈ 39.7 µg/mL)

**Q.** What does the source list for `N#C[C@H]1CCC[C@H]1Nc1nc(-c2cn[nH]c2)nc2c(=O)[nH]ccc12` (racemic)?
**A.** Papp A→B [1]: 0.2 ×10⁻⁶ cm/s; solubility kinetic [2]: 24 µM (≈ 7.71 µg/mL)

**Q.** With `CNc1nc(N[C@@H]2CCC[C@@H]2C#N)c2cc[nH]c(=O)c2n1` (racemic) as the compound, how does the solubility kinetic [2] read?
**A.** The solubility kinetic was 74 µM (≈ 21 µg/mL).

**Q.** Which Papp A→B [1] does the source give for `O=c1[nH]ccc2c(NC3CCCC3)ncnc12` here?
**A.** Its Papp A→B is 2.5 ×10⁻⁶ cm/s.

**Q.** What about the solubility kinetic [2] of the same compound?
**A.** The solubility kinetic was 318 µM (≈ 73.2 µg/mL).

**Q.** With `N#C[C@H]1CCC[C@H]1Nc1nc(N2CCCCC2)nc2c(=O)[nH]ccc12` (racemic) as the compound, how does the solubility kinetic [2] read?
**A.** Its solubility kinetic is 8.6 µM (≈ 2.91 µg/mL).

**Q.** Which solubility kinetic [2] does the source give for `N#C[C@H]1CCC[C@H]1Nc1ncnc2c(=O)[nH]ccc12` (racemic) here?
**A.** The solubility kinetic was 104 µM (≈ 26.5 µg/mL).

**Q.** Which solubility kinetic [2] does the source give for `N#C[C@H]1CCC[C@H]1Nc1nc(N2CCOCC2)nc2c(=O)[nH]ccc12` (racemic) here?
**A.** Its solubility kinetic is 51 µM (≈ 17.4 µg/mL).

**Q.** For `CN(CCO)c1nc(N[C@@H]2CCC[C@@H]2C#N)c2cc[nH]c(=O)c2n1` (racemic), which solubility kinetic [2] is on record?
**A.** The solubility kinetic was 19 µM (≈ 6.24 µg/mL).

**Q.** Which solubility kinetic [2] does the source give for `O=c1[nH]ccc2c(NC3CCCCC3)ncnc12` here?
**A.** The solubility kinetic was 225 µM (≈ 55 µg/mL).

**Q.** For `N#CC1CCCC1Nc1ncnc2c(=O)[nH]ccc12` (single isomer, unassigned; enantiomer 1), which solubility kinetic [2] is on record?
**A.** The solubility kinetic was 119 µM (≈ 30.4 µg/mL).

**Q.** Which solubility kinetic [2] does the source give for `N#C[C@H]1CCC[C@H]1Nc1nc(-c2ccccc2)nc2c(=O)[nH]ccc12` (racemic) here?
**A.** The solubility kinetic was 11 µM (≈ 3.65 µg/mL).
